Reference: paper PMC12027730, “Lapatinib-Resistant HER2+ Breast Cancer Cells Are Associated with Dysregulation of MAPK and p70S6K/PDCD4 Pathways and Calcium Management, Influence of Cryptotanshinone” (International Journal of Molecular Sciences, 2025)

Biological target: T1, eIF4AI (Homo sapiens, UniProt P60842)
T1 construct: gene EIF4A1
Assay: synchronous fluorescence quenching, eIF4A […] with Cry […]
Type: binding

T1 sequence (P60842 2-406): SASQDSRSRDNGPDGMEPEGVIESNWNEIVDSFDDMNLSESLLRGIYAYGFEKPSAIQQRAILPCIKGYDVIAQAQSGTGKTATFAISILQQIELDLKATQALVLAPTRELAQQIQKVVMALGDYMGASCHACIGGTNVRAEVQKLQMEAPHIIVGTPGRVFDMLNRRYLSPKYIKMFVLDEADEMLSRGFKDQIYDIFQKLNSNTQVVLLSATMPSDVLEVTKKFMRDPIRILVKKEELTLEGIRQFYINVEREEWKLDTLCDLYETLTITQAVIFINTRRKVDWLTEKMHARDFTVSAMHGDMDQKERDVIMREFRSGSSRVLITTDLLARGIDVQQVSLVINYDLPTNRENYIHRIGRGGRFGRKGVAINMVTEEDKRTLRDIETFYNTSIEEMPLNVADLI

C[C@H]1COC2=C1C(=O)C(=O)c1c2ccc2c1CCCC2(C)C [Cry, Cryptotanshinone]
synchronous fluorescence quenching, eIF4A 12 μM with Cry 0-50 μM: A Cry dose-dependent fluorescence emission decrease in eIF4A associated with the induction of the quenching phenomena was observed
